This is an account of results in patent US7527935B2, “G-protein coupled receptor having eicosanoid as ligand and gene thereof” (Mitsubishi Tanabe Pharma Corporation, priority 2002, dated 2009).

Experiment [1] relates to TG1019 (5-oxo-ETE receptor). The experiment can be described thus: Migration test using CHO cells stably expressing TG1019. The note with it: 5 hours. The experiment is classed as cell-based, human. As for the experimental part:
The cells stably expressing TG1019 and the cells not expressing the same obtained in the above section (1) were cultured in a medium (DMEM/F12 medium supplemented with 10% fetal bovine serum [GibcoBRL]), containing 800 μg/ml of hygromycin B. The cells which were 80 to 90% confluent were dissociated by a cell dissociation buffer, and the cells were washed twice by centrifugation (600×g, 5 minutes, 4° C.) with 10 ml of RPMI1640 culture medium supplemented with 0.1% BSA Then, the cells were prepared to a concentration of 1×10^6 cells/ml in the same medium.
Cell migration test was carried out using 2 chambers for migration test (Transwell; 8 μm pore, 24 well, 3422 [Costar]). Chambers were set in a plate, and a solution (600 μl) containing 5-oxo-ETE was added to the lower chamber, and the cell solution (100 μl) was added to the upper chamber, to start the reaction. Migration was carried out at 37° C. for 5 hours in a CO2 incubator.
The chambers were removed, and […] of the solution in the lower chamber was transferred to a tube, and centrifuged at 600×g, 3 minutes, 4° C. 300 μl of the supernatant was removed, and RPMI1640 culture medium supplemented with 0.1% BSA (not containing phenol red) was added, if needed, to adjust a volume of the cell solution to 300 μl. The number of the cells migrated to the lower chamber were counted by flow cytometer.

Experiment [2] concerns the target T1, fusion protein of TG1019 protein and Gqα (Homo sapiens, UniProt Q8TDS5, D111G/K206E/T295A).
T1 construct: made in house; host or cells: Sf9 insect cells (baculovirus, pVL1392), membrane fraction
Nature of the experiment: [35S]GTPγS binding to membrane fraction containing TG1019-Gqα fusion protein. The experiment is classed as biochemical. The note with it: membrane fraction with TG1019-Gqα fusion protein; increase small compared to Giα. From the text:
As stated in Example 1, it is concluded that TG1019 protein is a G-protein coupled receptor. Therefore, using a membrane fraction containing fused protein of TG1019 and G-protein, a ligand is identified as follows, according to a method for detecting a ligand-dependent binding with GTPγS (guanosine 5′-O-(3-thiotriphosphate)) [Wenzel-Seifert, et al., Mol. Pharmacom., Vol. 58, pp. 954-966, 2000; Bahia, et al., Biochemistry, Vol. 37, pp. 11555-11562, 1998].
Sf9 cells were inoculated onto a 10 cm Petri dish coated with collagen to about 70% confluence, and added thereto were Virus solution III (100 μl) obtained above and 12 ml of a culture medium, and the mixture was cultured at 27° C. for 4 days. […]
The membrane fraction (450 μl) obtained above (2) was suspended in a reaction buffer (7.54 ml), and added thereto was GDP (10 mM, 10 μl). […] GTPγS (a binding amount to the membrane fraction) on the filter was measured by liquid scintillation counting. From the thus measured [^35S] GTPγS binding amount was subtracted a nonspecific binding amount (a binding amount measured in the presence of 10 μM GTPγS), to obtain a specific binding amount of [^35S ] […]
A general note: GTPγS is a poorly hydrolysed GTP analogue; its binding reports G protein activation.

The next experiment has as its system neutrophils. Nature of the experiment: Migration test of neutrophils. The experiment is classed as cell-based. The note with it: purified human neutrophils; 2 hours. The method, then: Neutrophils were purified as follows. Blood was collected (50 ml) from healthy male adult volunteers. Then, 12.5 ml each of the collected blood was poured into a 50 ml tube containing 23 ml physiological saline, and, the total volume was adjusted to 40 ml with physiological saline. To a bottom of the tube, Percoll solution (specific gravity: 1.079±0.004, 10 ml) was gently added, and the mixture was centrifuged at 430×g, for 20 minutes at room temperature, without deceleration or acceleration.
After washing the eosinophils and neutrophils purified in the above sections, the cells were suspended in RPMI1640 supplemented with 0.1% BSA (not containing phenol red) which contains 3 μM Calcein-AM (Dojindo laboratories, fluorescence reagent), so that the cell count became 1×10^6 cells/ml. The suspension was incubated at 37° C. for 30 minutes. The cells were washed twice with the same culture medium, and suspended in the same medium so that the cell count became 1×10^6 cells/ml. […]
After the reaction, the chambers were removed, and to the lower chamber was added 66 μl of 10× lysis buffer (5% Triton X-100 dissolved in PBS, 10% ethanol). […] 200 μl of the cell lysate was transferred to 96 well black plate (237105, Nunc), and fluorescence intensities were measured using a fluorometer (ARVO™ SX, Wallac) with an excitation wavelength of 485 nm and a fluorescence wavelength of 535 nm.

T1 sequence (Q8TDS5 with tags, fused parts or gaps D111G/K206E/T295A): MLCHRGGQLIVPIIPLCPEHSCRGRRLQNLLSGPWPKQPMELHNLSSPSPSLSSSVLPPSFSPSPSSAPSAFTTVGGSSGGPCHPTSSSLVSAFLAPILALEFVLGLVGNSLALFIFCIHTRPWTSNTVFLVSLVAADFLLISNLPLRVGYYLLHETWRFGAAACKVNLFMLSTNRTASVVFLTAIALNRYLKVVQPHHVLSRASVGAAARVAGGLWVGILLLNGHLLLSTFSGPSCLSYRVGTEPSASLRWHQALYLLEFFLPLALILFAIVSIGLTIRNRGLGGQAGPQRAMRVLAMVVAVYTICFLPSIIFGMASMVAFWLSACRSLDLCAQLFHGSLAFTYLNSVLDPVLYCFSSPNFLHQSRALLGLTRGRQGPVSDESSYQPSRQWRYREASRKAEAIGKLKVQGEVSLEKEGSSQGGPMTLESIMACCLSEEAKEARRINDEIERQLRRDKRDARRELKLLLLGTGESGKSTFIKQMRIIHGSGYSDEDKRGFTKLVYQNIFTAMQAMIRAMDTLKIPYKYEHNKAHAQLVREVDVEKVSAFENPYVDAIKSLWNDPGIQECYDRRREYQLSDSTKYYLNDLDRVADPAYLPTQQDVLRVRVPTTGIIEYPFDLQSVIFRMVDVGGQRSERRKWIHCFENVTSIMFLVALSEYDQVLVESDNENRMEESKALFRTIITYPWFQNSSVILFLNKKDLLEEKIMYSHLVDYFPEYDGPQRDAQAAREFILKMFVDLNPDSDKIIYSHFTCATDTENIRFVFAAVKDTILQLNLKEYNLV

For `CCCCC/C=C\C/C=C\C/C=C\C=C\C(=O)CCCC(=O)O` [5-oxo-ETE, 5-oxo-6E,8Z,11Z,14Z-eicosatetraenoic acid], the cell migration entry was “did not” in experiment [1] (cells not expressing TG1019) and “showed 5-oxo-ETE-induced migration” in experiment [1] (cells stably expressing TG1019). Also, in experiment [2], the “specific binding amount of [35S]GTPγS” value was “increased”. Besides, the migration of neutrophils entry with neutrophils is reported as “has an ability to make these cells migrate”.
